These results are taken from patent US6818663B2, “Diaminothiazoles” (Hoffmann-La Roches, priority 2002, dated 2004).

A word on the IC50: it is the concentration that inhibits the measured activity by half.

The target of experiment [1] is human cyclin D1-CDK4 (Homo sapiens, UniProt P11802). The experiment is described as follows: FlashPlate kinase assay, cyclin D1-CDK4, Rb substrate. It is filed as biochemical. Conditions: recombinant cyclin D1-CDK4, Rb phosphorylation, 1 μM ATP. Here is the method:
(§1) To determine inhibition of Cdk4, Cdk2 and Cdk1 activity, kinase assays were conducted using FlashPlate™ assays (NEN™-Life Science Products). FlashPlate assays were performed using recombinant human cyclin B-CDK1, human cyclin E-CDK2 or human cyclin D1-CDK4 complexes. GST-cyclinE (GST-cycE), CDK2, GST-cyclinB (GST-cycB), CDK1, GST-CDK4 and cyclin D1 (cycD1) cDNA clones in baculovirus vectors were provided by Dr. W. Harper at the Baylor College of Medicine, Houston, Tex. Proteins were co-expressed in High Five™ insect cells and the complex was purified on glutathione Sepharose resin (Pharmacia, Piscataway, N.J.) as previously described (Harper, J. W. et al. Cell 1993, 75, 805-816). A 6×-Histidine tagged truncated form of retinoblastoma (Rb) protein (amino acid 386-928) was used as the substrate for the cycD1-CDK4, cycB-CDK1 and the cycE-CDK2 assays (the expression plasmid was provided by Dr. Veronica Sullivan, Department of Molecular Virology, Roche Research Centre, Welwyn Garden City, United Kingdom). The Rb protein is a natural substrate for phosphorylation by CDK4, CDK2 and CDK1 (see Herwig and Strauss Eur. J. Biochem. Vol. 246 (1997) pp. 581-601 and the references cited therein).
(§2) The expression of the 62 Kd protein was under the control of an IPTG inducible promoter in an M15 E. coli strain. Cells were lysed by sonication and purification was carried out by binding lysates at pH 8.0 to a Ni-chelated agarose column pretreated with 1 mM imidazole. The resin was then washed several times with incrementally decreasing pH buffers to pH 6.0, and eluted with 500 mM imidazole. Eluted protein was dialysed against 20 mM HEPES pH 7.5, 30% glycerol, 200 mM NaCl, and 1 mM DTT. Purified Rb fusion protein stocks were quantitated for protein concentration, aliquoted, and stored at −70° C.
(§3) For all three kinase assays reported herein, 96-well FlashPlates were coated with Rb protein at 10 μg/ml, using 100 μl per well. Plates were incubated at 4° C. overnight or at room temperature for 3 hours on a shaker. To control for nonspecific phosphorylation, one row of wells was coated with 100 μl/well coating buffer (20 mM HEPES, 0.2 M NaCl). Plates were then washed twice with wash buffer (0.01% Tween 20 in phosphate-buffered saline). Compounds to be tested (“test compounds”) were added to the wells at 5×final concentration. Reactions were initiated by immediate addition of 40 μl reaction mix (25 mM HEPES, 20 mM MgCl2, 0.002% Tween 20, 2 mM DTT, 1 μM ATP, 4 nM ^33P-ATP) and a sufficient amount of enzyme to give counts that were at least 10-fold above background. Plates were incubated at room temperature on a shaker for 30 minutes. Plates were washed four times with the wash buffer, sealed, and counted on the TopCount scintillation counter (Packard Instrument Co., Downers Grove, Ill.]. The percent inhibition of Rb phosphorylation, which is a measure of the inhibition of CDK activity, was determined according to the following formula: [formula]
(§4) where “test compound” refers to the average counts per minute of the test duplicates, “nonspecific” refers to the average counts per minute when no CyclinD/Cdk4, etc., was added, and “total” refers to the average counts per minute when no compound was added. The IC50 value is the concentration of test compound that reduces by 50% the protein-kinase induced incorporation of the radiolabel under the test conditions described.

In experiment [2] the target is human cyclin B-CDK1 (Homo sapiens, UniProt P06493). Nature of the experiment: FlashPlate kinase assay, cyclin B-CDK1, Rb substrate. It counts as biochemical. The conditions noted are these: recombinant cyclin B-CDK1, Rb phosphorylation, 1 μM ATP. How it is done:
as §1, §2, §3, §4

Experiment [3] addresses human cyclin E-CDK2 (Homo sapiens, UniProt P24941). The experiment is described as follows: FlashPlate kinase assay, cyclin E-CDK2, Rb substrate. It is filed as biochemical. Conditions: recombinant cyclin E-CDK2, Rb phosphorylation, 1 μM ATP. How it is done:
as §1, §2, §3, §4

The subject of experiment [4] is HCT116, a colorectal carcinoma cell line. Nature of the experiment: Tetrazolium dye proliferation assay (MTT assay). It is filed as cell-based. Conditions: Homo sapiens, HCT-116, HCT116 cells, inhibition of cell proliferation. How it is done:
Proliferation was evaluated by the tetrazolium dye assay according to the procedure of Denizot and Lang (Denizot, F. and Lang, R. J Immunol Methods 1986, 89, 271-277). The cell line used was HCT116, a colorectal carcinoma cell line obtained from the American Type Cell Culture Collection (ATCC; Rockville, Md.). The cells were grown in McCoy's 5A medium supplemented with 10% FCS and L-glutamine.
Cells were plated at the appropriate seeding density to give logarithmic growth over the course of the assay in a 96-well tissue culture plate. Plates were incubated overnight at 37° C. in a humidified incubator with 5% CO2. The next day, test compounds were serially diluted to four times the final concentration in the appropriate medium containing 1.2% DMSO. One-fourth final volume of each dilution was added in duplicate to the plates containing cells. The same volume of 1.2% DMSO in medium was added to a row of “control wells” such that the final concentration of DMSO in each well was 0.3%. Wells to which no cells were added served as the “blank.” Wells to which no inhibitor was added served as “no inhibitor control.” The plates were) returned to the incubator, and at set time points (determined by their growth curves) plates were analyzed as described below.
3-(4,5-dimethylthiazole-2-yl)-2,5-diphenyl-2H-tetrazolium bromide (thiazolyl blue; MTT; Sigma) was added to each well to yield a final concentration of 1 mg/ml. Plates were returned to the incubator for 2.5-3 hours at 37° C. The MTT-containing medium was removed and the resulting formazan metabolite was solubilized in 100% ethanol with shaking for 15 minutes at room temperature. Absorbance readings were taken in a microtiter plate reader (Dynatech and Molecular Devices plate readers were used interchangeably) at a wavelength of 570 nm with a 650 nm reference. Percent inhibition (% INH) is calculated by subtracting the absorbance of the blank well from all wells, then subtracting the ratio of the average absorbance of each test duplicate (SAVE) by the average of the controls (CAVE) from 1.00. The final number is then multiplied by 100 (% INH=(1.00−SAVE/CAVE)×100). The concentration at which 50% inhibition of cell proliferation is obtained (the IC50) is determined from the linear regression of a plot of the logarithm of the concentration versus percent inhibition.
In general terms: Tetrazolium assays rely on reduction of a dye to a coloured formazan, in cell work by metabolically active cells.

Chain of human cyclin D1-CDK4 (P11802 whole entry): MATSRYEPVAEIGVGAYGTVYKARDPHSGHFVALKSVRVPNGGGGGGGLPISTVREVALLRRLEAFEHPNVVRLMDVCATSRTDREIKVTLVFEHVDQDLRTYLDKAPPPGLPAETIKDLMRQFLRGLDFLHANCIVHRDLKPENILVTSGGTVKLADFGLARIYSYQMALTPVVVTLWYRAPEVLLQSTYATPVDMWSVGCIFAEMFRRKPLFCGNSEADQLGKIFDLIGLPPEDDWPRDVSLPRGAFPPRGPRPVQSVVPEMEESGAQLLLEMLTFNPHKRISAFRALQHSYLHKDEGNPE
Chain of human cyclin D1-CDK4 (P24385 whole entry partner): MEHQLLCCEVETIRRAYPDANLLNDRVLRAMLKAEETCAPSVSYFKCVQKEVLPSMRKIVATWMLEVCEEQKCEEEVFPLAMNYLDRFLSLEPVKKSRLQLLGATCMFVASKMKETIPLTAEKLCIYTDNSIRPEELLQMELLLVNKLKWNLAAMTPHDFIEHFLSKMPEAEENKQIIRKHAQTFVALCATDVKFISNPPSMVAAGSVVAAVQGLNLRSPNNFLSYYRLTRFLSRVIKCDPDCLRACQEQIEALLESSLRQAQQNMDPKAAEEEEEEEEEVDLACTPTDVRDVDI
Chain of human cyclin B-CDK1 (P06493 whole entry): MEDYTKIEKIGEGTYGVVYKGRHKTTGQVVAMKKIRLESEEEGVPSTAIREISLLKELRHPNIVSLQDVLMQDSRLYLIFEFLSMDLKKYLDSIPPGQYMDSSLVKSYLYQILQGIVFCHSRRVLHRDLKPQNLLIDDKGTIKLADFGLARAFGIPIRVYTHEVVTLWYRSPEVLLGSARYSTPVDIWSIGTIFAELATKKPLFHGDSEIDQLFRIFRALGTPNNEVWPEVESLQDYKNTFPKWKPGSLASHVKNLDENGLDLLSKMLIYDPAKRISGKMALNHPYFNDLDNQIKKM
Chain of human cyclin B-CDK1 (P14635 whole entry partner): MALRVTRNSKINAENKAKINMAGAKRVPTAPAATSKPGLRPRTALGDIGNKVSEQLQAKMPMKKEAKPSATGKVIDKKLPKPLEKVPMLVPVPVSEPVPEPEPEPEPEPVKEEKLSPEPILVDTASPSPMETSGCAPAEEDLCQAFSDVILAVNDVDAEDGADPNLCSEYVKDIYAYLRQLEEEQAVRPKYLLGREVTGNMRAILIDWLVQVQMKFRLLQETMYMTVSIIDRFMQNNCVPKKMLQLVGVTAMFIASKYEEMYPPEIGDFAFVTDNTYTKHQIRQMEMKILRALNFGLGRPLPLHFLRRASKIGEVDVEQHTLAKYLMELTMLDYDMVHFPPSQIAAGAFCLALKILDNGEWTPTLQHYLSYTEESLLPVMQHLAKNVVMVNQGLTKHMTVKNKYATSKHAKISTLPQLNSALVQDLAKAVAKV

On to `CCc1ccc(C(=O)c2sc(Nc3ccc(OCCN4CCCC4)cc3)nc2N)cc1F` [Example 6, [4-Amino-2-[4-(2-pyrrolidin-1-yl-ethoxy)-phenylamino]-thiazol-5-yl]-(4-ethyl-3-fluoro-phenyl)-methanone; Compound With Trifluoroacetic Acid], for which the IC50 was 0.043 µM in experiment [1], 1.13 µM in experiment [2], 3.17 µM in experiment [3] and 3.7 µM in experiment [4].
On to `CN(C)CCOc1ccc(Nc2nc(N)c(C(=O)c3ccc4c(c3)OCCO4)s2)cc1` [Example 58, [4-Amino-2-[4-(2-dimethylamino-ethoxy)-phenylamino]-thiazol-5-yl]-(2,3-dihydro-benzo[1,4]dioxin-6-yl)-methanone], for which the figures for the IC50 in experiment [1], in experiment [2] and in experiment [4] were 0.043 µM, 0.884 µM and 3.7 µM, respectively.
On the same counts, the results for `CCc1cc(C(=O)c2sc(Nc3ccc(OCCN4CCCC4)cc3)nc2N)ccc1F` [Example 76, [4-Amino-2-[4-(2-pyrrolidin-1-yl-ethoxy)-phenylamino]-thiazol-5-yl]-(3-ethyl-4-fluoro-phenyl)-methanone] are 0.063 µM, 3.89 µM and 3.69 µM.
On the same counts, the results for `CCc1cc(C(=O)c2sc(Nc3ccc(OC[C@@H](C)N(C)C)cc3)nc2N)ccc1F` [Example 77, (R)-[4-Amino-2-[4-(2-dimethylamino-propoxy)-phenylamino]-thiazol-5-yl]-(3-ethyl-4-fluoro-phenyl)-methanone] are 0.08 µM, 7.8 µM and 4.4 µM.
For `CCc1cc(C(=O)c2sc(Nc3ccc(OC4CCCN(CC)C4)cc3)nc2N)ccc1F` (stereo not drawn) [Example 81, [4-Amino-2-[4-(1-ethyl-piperidin-3-yloxy)-phenylamino]-thiazol-5-yl]-(3-ethyl-4-fluoro-phenyl)-methanone], the IC50 in experiment [1] worked out at 0.055 µM; in experiment [3], 6.4 µM; in experiment [4], 4.24 µM.
As for `COc1ccc(C(=O)c2sc(Nc3ccc(OC4CCCNC4)cc3)nc2N)cc1F` (stereo not drawn) [Example 97, [4-Amino-2-[4-(piperidin-3-yloxy)-phenylamino]-thiazol-5-yl]-(3-fluoro-4-methoxy-phenyl)-methanone], the IC50 in experiment [1] turned out to be 0.096 µM; in experiment [2], 1.72 µM; in experiment [3], 3.74 µM.
As for `CCc1cccc(C(=O)c2sc(Nc3ccc(OC4CCCNC4)cc3)nc2N)c1` (stereo not drawn) [Example 98, [4-Amino-2-[4-(piperidin-3-yloxy)-phenylamino]-thiazol-5-yl]-(3-ethyl-phenyl)-methanone], the values for the IC50 in experiment [1], in experiment [2] and in experiment [3] were 0.034 µM, 0.523 µM and 1.23 µM, respectively.
The corresponding values for `CCCc1cc(C(=O)c2sc(Nc3ccc(OC4CCCNC4)cc3)nc2N)ccc1O` (stereo not drawn) [Example 99, [4-Amino-2-[4-(piperidin-3-yloxy)-phenylamino]-thiazol-5-yl]-(4-hydroxy-3-propyl-phenyl)-methanone] are 0.038 µM, 0.174 µM and 0.158 µM.
Consider `CCCc1cc(C(=O)c2sc(Nc3ccc(OCCN(C)C)cc3)nc2N)ccc1O` [Example 106, [4-Amino-2-[4-(2-dimethylamino-ethoxy)-phenylamino]-thiazol-5-yl-](4-hydroxy-3-propyl-phenyl)-methanone; Compound With Acetic Acid], for which the IC50 in experiment [1] is 0.017 µM; in experiment [2], 0.344 µM; in experiment [3] it was 0.272 µM.
Regarding `Cc1cccc(C(=O)c2sc(Nc3ccc(OC[C@@H]4CCCN4C)cc3)nc2N)c1` [Example 111, (S)-[4-Amino-2-[4-(1-methyl-pyrrolidin-2-ylmethoxy)-phenylamino]-thiazol-5-yl]-m-tolyl-methanone], the 50% inhibitory concentration (IC50) is 0.086 µM in experiment [1], 1.56 µM in experiment [2] and 2.99 µM in experiment [3].
Consider `CCNCCOc1ccc(Nc2nc(N)c(C(=O)c3ccc4c(c3)OCCO4)s2)cc1` [Example 134, [4-Amino-2-[4-(2-ethylamino-ethoxy)-phenylamino]-thiazol-5-yl]-(2,3-dihydro-benzo[1,4]dioxin-6-yl)-methanone], for which the concentration for half-maximal inhibition (IC50) is 0.044 µM in experiment [1], 1.93 µM in experiment [2] and 7.29 µM in experiment [4].
Turning to `CC(C)NCCOc1ccc(Nc2nc(N)c(C(=O)c3ccc4c(c3)OCCO4)s2)cc1` [Example 136, [4-Amino-2-[4-(2-isopropylamino-ethoxy)-phenylamino]thiazol-5-yl]-(2,3-dihydro-benzo[1,4]dioxin-6-yl)-methanone], the 50% inhibitory concentration (IC50) in experiment [1] is 0.045 µM; in experiment [2], 1.76 µM; in experiment [4], 5.09 µM.
For `CC1COc2ccc(C(=O)c3sc(Nc4ccc(OCCN5CCCC5)cc4)nc3N)cc21` (stereo not drawn) [Example 140, [4-Amino-2-[4-(2-pyrrolidin-1-yl-ethoxy)-phenylamino]-thiazol-5-yl]-(3-methyl-2,3-dihydro-benzofuran-5-yl)-methanone], the IC50 in experiment [1] was 0.063 µM; in experiment [4], 4.63 µM.
With `CCNCCOc1ccc(Nc2nc(N)c(C(=O)c3ccc4c(c3)CCO4)s2)cc1` [Example 143, [4-Amino-2-[4-(2-ethylamino-ethoxy)-phenylamino]-thiazol-5-yl]-(2,3-dihydro-benzofuran-5-yl)-methanone], the IC50 in experiment [1] was 0.091 µM; in experiment [2], 2.36 µM; in experiment [3] it was 3.02 µM.
`COc1ccc(C(=O)c2sc(Nc3ccc(OCCCN)cc3)nc2N)cc1F` [Example 147, [4-Amino-2-[4-(3-amino-propoxy)-phenylamino]-thiazol-5-yl]-(3-fluoro-4-methoxy-phenyl)-methanone]: the IC50 turned out to be 0.097 µM in experiment [1], 0.578 µM in experiment [2] and 1.73 µM in experiment [3].
Consider `CCNCCCOc1ccc(Nc2nc(N)c(C(=O)c3ccc(OC)c(F)c3)s2)cc1` [Example 148, [4-Amino-2-[4-(3-ethylamino-propoxy)-phenylamino]-thiazol-5-yl]-(3-fluoro-4-methoxy-phenyl)methanone], for which the values for the half-inhibitory concentration (IC50) in experiment [1], in experiment [2] and in experiment [3] were 0.067 µM, 0.519 µM and 1.91 µM, respectively.
